This note sets out measurements from US20230137021A1, “Drug Conjugates of Sugar Derivatives and Uses Thereof as Senolytic Agents” (Rubedo Life Sciences, Inc., priority 2021, published 2023).

Holding throughout (format): cell-based
Assay [1] concerns T47D breast cancer cells, sgFUCA1. In words: CRISPR-engineered cancer cell line viability assay (XTT), T47D/sgFUCA1. Particulars: T47D cells with Cas9 and sgFUCA1, treated for three days, absolute IC50 at Y=0.5 viability. As for the experimental part: (§1) T47D and HCC1954 breast cancer cells were cultured in RPMI 1640 medium containing 10% heat inactivated fetal bovine serum. Cell lines were infected with lentiviral construct(s) containing S. pyogenes Cas9 and sgRNA(s) targeting the gene(s) of interest. Infected cells were selected by antibiotic treatment. To assess cell viability in response to compound treatment, cells were seeded into 96-well plates. The next day, serial dilutions covering 10 concentrations of compound were added to the cells. Cells were treated for three days. Cell viability was determined by mitochondrial dehydrogenase activity (XTT assay, Cayman Chemical). To generate dose-response curves, data was fitted to a four-parameter Hill function and the absolute IC50 was determined at Y=0.5 viability.

The subject of assay [2] is T47D breast cancer cells, sgNTC. Briefly: CRISPR-engineered cancer cell line viability assay (XTT), T47D sgNTC. Particulars: T47D cells with Cas9 and sgNTC, treated for three days, absolute IC50 at Y=0.5 viability, read-out: T47/D sgNTC. As to the method:
as §1

In assay [3] the test system is senescent A549 cells. In words: Cytotoxicity assay (XTT), senescent A549 cells. Particulars: A549 senescence induced with 25 μM gemcitabine, incubated with drug for 72 hours, read-out: A549 SEN. As for the experimental part: (§2) Proliferating and senescent cells were maintained in T175 flasks under the conditions specified below, passaging upon reaching ˜90% confluency. Prior to use in cytotoxicity assays, cells were visually inspected under phase microscopy for contamination and health; if either contamination or significant cell debris was noted, cells were not used. Healthy cells were plated into the middle 60 wells of 96-well plates at a concentration of either 5,000 or 10,000 cells/well (for proliferating and senescent conditions, respectively). The outer 36 wells in each plate contained DPBS to both prevent desiccation of the interior wells and edge effects upon spectrometry readings. After seeding cells into the 96-well plates, they were given 24 hours to attach prior to drug addition. Drug was added in triplicate across 10 different concentrations, spanning roughly 4 Log 10 units. Plates were incubated with drug for 72 hours, at which point the drug-containing media was aspirated and replaced with XTT media. The XTT reagent undergoes an absorbance shift upon reduction through an NAD(P)H-dependent metabolic reaction, and the resulting shift can be used to quantify the viability of the remaining cells after drug treatment. Absorbance readings for each test article were taken once a suitable dynamic range was achieved (generally 0.7-1.4 absorbance units). The resulting data was then background corrected and logarithmized to produce concentration-response curves.
Wild type A549 cells were thawed into DMEM (high glucose, 4 mM L-glutamine, no sodium pyruvate) supplemented with 10% heat-inactivated fetal bovine serum and 1% penicillin-streptomycin antibiotic cocktail. Cells were cultured at 37 C, 5% CO2, and atmospheric oxygen. For senescence induction, only A549s at passage 20 or lower were used. Cells were grown to 60-70% confluency before aspirating media and replacing with fresh media containing 25 μM gemcitabine. Cells were cultured without refreshing media for 72 hours. After treatment, the drug-containing media was aspirated, cells were gently washed with 1×DPBS, and fresh, drug-free media was added to the flask, at which point the cells were allowed to rest for a further 72 hours. Following this rest period, senescence induction was assessed by morphology, SA-β-gal activity, and EdU incorporation. Note: senescence induction with gemcitabine can occasionally result in spontaneous re-entry into the cell cycle in A549s. For this reason, cells should be used in various assays within 14 days of induction to avoid outgrowth of non-senescent populations. In cytotoxicity assays, proliferating cells at passage 20 or younger were included as a comparator. […]

Assay [4] deals with senescent IMR90 primary lung fibroblasts. In words: Cytotoxicity assay (XTT), senescent IMR90 cells. The settings on record: incubated with drug for 72 hours, read-out: IMR90 SEN. As for the experimental part: as §2, with “After seeding cells into the 96-well plates, they were given 24 hours to attach prior to drug addition. Drug was added in triplicate across 10 different concentrations, spanning roughly 4 Log 10 units. Plates were incubated with drug for 72 hours, at which point the drug-containing media was aspirated and replaced with XTT media.” left out, “The resulting data was then background corrected and logarithmized to produce concentration-response curves.” left out
IMR90 primary lung fibroblasts were thawed into DMEM (high glucose, 4 mM L-glutamine, no sodium pyruvate) supplemented with 10% heat-inactivated fetal bovine serum and 1% penicillin-streptomycin antibiotic cocktail. […] Following this rest period, senescence induction was assessed by morphology, SA-β-gal activity, and EdU incorporation. […]
(In general: Formazan colour is commonly taken as a measure of viable cells.)

Assay [5] concerns T47D breast cancer cells, sgGLB sgGALC. Briefly: CRISPR-engineered cancer cell line viability assay (XTT), T47D/sgGLB sgGALC. The settings on record: Homo sapiens, 72 h, T47D cells with Cas9 and sgGLB sgGALC, treated for three days, absolute IC50 at Y=0.5 viability. As to the method:
as §1

Read-outs that look alike come from different tables or passages of the source.

On to `CC(=O)O[C@H]1[C@H](C)O[C@@H](ONC(=O)/C=C/c2ccc(CN(CCc3c(C)[nH]c4ccccc34)C(=O)OCc3oc(=O)oc3C)cc2)C[C@@H]1OC(C)=O` [Compound 105], for which the IC50 was found to be 2.86 µM in assay [1] (Homo sapiens, 72 h) and 0.0531 µM in assay [2] (Homo sapiens, 72 h).

In assay [1] (Homo sapiens, 72 h), `Cc1[nH]c2ccccc2c1CCN(Cc1ccc(/C=C/C(=O)NO[C@H]2C[C@H](O)[C@@H](O)[C@H](C)O2)cc1)C(=O)OCc1oc(=O)oc1C` [Compound 106] yielded an IC50 of 29.2 µM.

On to `CC(=O)O[C@@H]1[C@H](C)O[C@@H](ONC(=O)c2cnc(N3CCC(CNCc4cn(C)c5ccccc45)CC3)nc2)C[C@@H]1OC(C)=O` [Compound 107, (2S,3R,4S,6S)-3-(acetyloxy)-2-methyl-6-[({2-[4-({[(1-methyl-1H-indol-3-yl)methyl]amino}methyl)piperidin-1-yl]pyrimidin-5-yl}formamido)oxy]oxan-4-yl acetate], for which the IC50 was 1.01 µM in assay [1] (Homo sapiens, 72 h) and 0.0094 µM in assay [2] (Homo sapiens, 72 h).

On to `C[C@@H]1O[C@@H](ONC(=O)c2cnc(N3CCC(CNCc4cn(C)c5ccccc45)CC3)nc2)C[C@H](O)[C@@H]1O` [Compound 108, N-{[(2S,4S,5S,6S)-4,5-dihydroxy-6-methyloxan-2-yl]oxy}-2-[4-({[(1-methyl-1H-indol-3-yl)methyl]amino}methyl)piperidin-1-yl]pyrimidine-5-carboxamide], for which the IC50 in assay [1] (Homo sapiens, 72 h) was 8.72 µM; in assay [2] (Homo sapiens, 72 h) it was 0.942 µM.

`CC(=O)O[C@H]1[C@H](C)O[C@@H](ONC(=O)/C=C/c2ccc(CNCCc3c(C)[nH]c4ccccc34)cc2)C[C@@H]1OC(C)=O` [Compound 111]: the IC50 in assay [1] (Homo sapiens, 72 h) was found to be 1.11 µM; in assay [3] (Homo sapiens) it was 0.243 µM; in assay [2] (Homo sapiens, 72 h) it was 0.0253 µM; in assay [4] (Homo sapiens, IMR-90, IMR90 senescence induced with 300 nM doxorubicin) it was 3.78 µM.

On to `Cc1[nH]c2ccccc2c1CCNCc1ccc(/C=C/C(=O)NO[C@H]2C[C@H](O)[C@@H](O)[C@H](C)O2)cc1` [Compound 112], for which the IC50 is 16.4 µM in assay [1] (Homo sapiens, 72 h) and 0.822 µM in assay [2] (Homo sapiens, 72 h).

As for `Cc1[nH]c2ccccc2c1CCNCc1ccc(/C=C/C(=O)NO[C@@H]2O[C@H](CF)[C@H](O)[C@H](O)[C@H]2O)cc1` [Compound 122, (E)-N-[(2S,3R,4S,5R,6S)-6-(fluoromethyl)-3,4,5-trihydroxy-tetrahydropyran-2-yl]oxy-3-[4-[[2-(2-methyl-1H-indol-3-yl)ethylamino]methyl]phenyl]prop-2-enamide], the IC50 is greater than 30 µM in assay [5] and greater than 30 µM in assay [2] (Homo sapiens, 72 h).

For the molecule `Cc1[nH]c2ccccc2c1CCNCc1ccc(/C=C/C(=O)NO[C@@H]2O[C@H](CO)C[C@H](O)[C@H]2O)cc1` [Compound 124, (E)-N-[(2S,3R,4S,6S)-3,4-dihydroxy-6-(hydroxymethyl)tetrahydropyran-2-yl]oxy-3-[4-[[2-(2-methyl-1H-indol-3-yl)ethylamino]methyl]phenyl]prop-2-enamide], the IC50 was 67 µM in assay [3] (Homo sapiens); greater than 30 µM in assay [5]; 9.86 µM in assay [2] (Homo sapiens, 72 h).

As for `C/C(=C\C=C\CNCCc1c(C)[nH]c2ccccc12)C/C=C/C(=O)NOC1O[C@H](CO)[C@H](F)[C@H](O)[C@H]1O` (some centres unmarked) [Compound 126], in assay [3] (Homo sapiens), the IC50 was greater than 30 µM.

Consider “(2E)-N-{[(3aR,4S,7aS)-4-methyl-2-oxo-hexahydro-[1,3]dioxolo[4,5-c]pyran-6-yl]oxy}-3-[4-({[2-(2-methyl-1H-indol-3-yl)ethyl]amino}methyl)phenyl]prop-2-enamide [Compound 109]”, for which the IC50 in assay [1] worked out at 1.36 µM; in assay [3] it was 2.27 µM; in assay [2], 0.33 µM; in assay [4] (IMR90 senescence induced with 300 nM doxorubicin) it was 13.5 µM.
